Laboratory results published in the NIST ThermoML archive (doi:10.1016/j.fluid.2014.03.003).
± gives the expanded uncertainty stated by the source.

Conditions: Liquid, Closed cell (Static) method

SMILES	vapor or sublimation pressure (313.15 K) [kPa]	vapor or sublimation pressure (323.15 K) [kPa]	vapor or sublimation pressure (333.15 K) [kPa]	vapor or sublimation pressure (343.15 K) [kPa]	vapor or sublimation pressure (353.15 K) [kPa]	vapor or sublimation pressure (363.15 K) [kPa]	vapor or sublimation pressure (373.15 K) [kPa]	vapor or sublimation pressure (378.15 K) [kPa]	vapor or sublimation pressure (383.15 K) [kPa]	vapor or sublimation pressure (393.15 K) [kPa]	vapor or sublimation pressure (403.15 K) [kPa]	vapor or sublimation pressure (308.15 K) [kPa]	vapor or sublimation pressure (318.15 K) [kPa]	vapor or sublimation pressure (328.15 K) [kPa]	vapor or sublimation pressure (338.15 K) [kPa]	vapor or sublimation pressure (303.15 K) [kPa]	vapor or sublimation pressure (358.15 K) [kPa]	vapor or sublimation pressure (348.15 K) [kPa]	vapor or sublimation pressure (368.15 K) [kPa]	further results
Cc1ccccc1C [1,2-dimethylbenzene]	2.052 ± 0.035	3.456 ± 0.022	5.613 ± 0.047	8.542 ± 0.051	12.73 ± 0.04	18.65 ± 0.057	26.73 ± 0.076	31.66 ± 0.091	37.35 ± 0.1	51.01 ± 0.14	68.42 ± 0.18									vapor or sublimation pressure (388.15 K): 43.63 ± 0.12 kPa; vapor or sublimation pressure (413.15 K): 90.18 ± 0.24 kPa
Cc1cccc(C)c1 [1,3-dimethylbenzene]	3.524 ± 0.028	5.37 ± 0.045	7.75 ± 0.038	11.12 ± 0.036	15.97 ± 0.048	22.76 ± 0.058	32.06 ± 0.079		44.23 ± 0.11		80.2 ± 0.16	2.631 ± 0.045	4.372 ± 0.036	6.496 ± 0.037	9.305 ± 0.035					
Cc1ccc(C)cc1 [1,4-dimethylbenzene]	2.49 ± 0.039	4.422 ± 0.042	6.997 ± 0.048	10.63 ± 0.057	15.72 ± 0.085	22.8 ± 0.091	32.04 ± 0.12		44.56 ± 0.16	60.79 ± 0.22	80.87 ± 0.28					1.562 ± 0.031	19.04 ± 0.085			vapor or sublimation pressure (408.15 K): 92.43 ± 0.32 kPa
c1ccccc1 [benzene]	24.3 ± 0.052	36.09 ± 0.069	52.11 ± 0.11	73.35 ± 0.13	100.91 ± 0.17							19.71 ± 0.05	29.73 ± 0.063	43.51 ± 0.082	62.01 ± 0.11	15.85 ± 0.035		86.27 ± 0.15		vapor or sublimation pressure (293.15 K): 9.983 ± 0.027 kPa; vapor or sublimation pressure (298.15 K): 12.64 ± 0.037 kPa
CCc1ccccc1 [ethylbenzene]		4.712 ± 0.029	7.448 ± 0.031	11.41 ± 0.032					47.75 ± 0.1		85.64 ± 0.17	2.223 ± 0.019	3.746 ± 0.041	5.967 ± 0.03	9.251 ± 0.028		20.42 ± 0.06	13.79 ± 0.04	29.11 ± 0.073	
Cc1ccccc1 [toluene]	7.963 ± 0.026	12.31 ± 0.032	18.86 ± 0.057	27.31 ± 0.059				86.25 ± 0.16				6.257 ± 0.024	9.959 ± 0.034	15.14 ± 0.041	22.61 ± 0.05	4.905 ± 0.022	46.17 ± 0.091	32.72 ± 0.071	63.84 ± 0.12	
